Measurements: patent publication US20040248918A1, “N-phenyl-2-pyrimidine-amine derivatives and process for the preparation thereof” (IL YANG PHARM. CO., LTD., priority 2003, published 2004)

Tests used:
[1] = tested on: K562 cancer cell (CML cell line); test: Growth inhibition of K562 cancer cell (MTT); assay type: cell-based; conditions: for IC50: Homo sapiens, K562, 48 h, K562, 2 days, MTT, read-out: IC50
Method: In the present experiment, the inhibitory activity of the compound of formula (1) was determined against the growth of K562 cancer cell. First, the cells were allowed to stand in RPMI (Roswell Park Memorial Institute)-1640 medium containing 10% (v/v) fetal bovine serum in an incubator of 37° C. and 5% by volume of CO2. The cancer cells (1000 cells) were transferred to a 96-well plate, and the test compound was diluted. The plate was allowed to stand under the above mentioned conditions for 2 days. […] The supernatant was removed to leave the resulting crystal.

SMILES | IC50 [1] | Improved activity versus Imatinib mesylate ([1]; K562) | melting point
Cc1ccc(NC(=O)c2ccc(CNN3CCN(C)CC3)cc2)cc1Nc1nccc(-c2cccnc2)n1.Cl [Example 42, 4-(4-methylpiperazin-1-ylaminomethyl)-N-[4-methyl-3-(4-(pyridin-3-yl)pyrimidin-2-yl)aminophenyl]benzamide hydrochloride] | 0.3 µg/mL | much higher activity | –
CN1CCN(NCc2ccc(C(=O)Nc3ccc(Nc4nccc(-c5cccnc5)n4)cc3)cc2)CC1.Cl [Example 43, 4-(4-methylpiperazin-1-ylaminomethyl)-N-[4-(4-(pyridin-3-yl)pyrimidin-2-yl)aminophenyl]benzamide hydrochloride] | > 50 µg/mL | – | 183 to 185 °C
CN1CCN(Cc2ccc(C(=O)Nc3ccc(F)c(Nc4nccc(-c5cccnc5)n4)c3)cc2)CC1.CS(=O)(=O)O [Example 32, 4-(4-methylpiperazin-1-ylmethyl)-N-[4-fluoro-3-(4-(pyridin-3-yl)pyrimidin-2-yl)aminophenyl]benzamide methanesulfonate] | 8.06 µg/mL | – | 172 to 174 °C
CN1CCCN(Cc2ccc(C(=O)Nc3cc(Nc4nccc(-c5cccnc5)n4)ccc3F)cc2)CC1.CS(=O)(=O)O [Example 24, 4-(4-methylhomopiperazin-1-ylmethyl)-N-[2-fluoro-5-(4-(pyridin-3-yl)pyrimidin-2-yl)aminophenyl]benzamide methanesulfonate] | 19.1 µg/mL | – | 125 to 127 °C
CN1CCCN(Cc2ccc(C(=O)Nc3ccc(Nc4nccc(-c5cccnc5)n4)cc3)cc2)CC1.Cl [Example 41, 4-(4-methylhomopiperazin-1-ylmethyl)-N-[4-(4-(pyridin-3-yl)pyrimidin-2-yl)aminophenyl]benzamide hydrochloride] | 5.61 µg/mL | – | –
CN1CCN(NCc2ccc(C(=O)Nc3cc(Nc4nccc(-c5cccnc5)n4)ccc3F)cc2)CC1.CS(=O)(=O)O [Example 28, 4-(4-methylpiperazin-1-ylaminomethyl)-N-[2-fluoro-5-(4-(pyridin-3-yl)pyrimidin-2-yl)aminophenyl]benzamide methanesulfonate] | 8.63 µg/mL | – | 142 to 144 °C
CS(=O)(=O)O.Cc1cc(NC(=O)c2ccc(CNN3CCN(C)CC3)cc2)ccc1Nc1nccc(-c2cccnc2)n1 | – | – | 172 to 174 °C
CS(=O)(=O)O.Cc1cc(NC(=O)c2ccc(CN3CCCN(C)CC3)cc2)ccc1Nc1nccc(-c2cccnc2)n1 [Example 16, 4-(4-methylhomopiperazin-1-ylmethyl)-N-[3-methyl-4-(4-(pyridin-3-yl)pyrimidin-2-yl)aminophenyl]benzamide methanesulfonate] | > 50 µg/mL | – | 166 to 168 °C
CC(=O)O.CN1CCN(NCc2ccc(C(=O)Nc3ccc(Nc4nccc(-c5cccnc5)n4)cc3)cc2)CC1 | – | – | 169 to 171 °C
CN1CCN(NCc2ccc(C(=O)Nc3cccc(Nc4nccc(-c5cccnc5)n4)c3)cc2)CC1.CS(=O)(=O)O [Example 14, 4-(4-methylpiperazin-1-ylaminomethyl)-N-[3-(4-(pyridin-3-yl)pyrimidin-2-yl)aminophenyl]benzamide methanesulfonate] | 8.95 µg/mL | – | 148 to 150 °C
CN1CCN(NCc2ccc(C(=O)Nc3ccc(Nc4nccc(-c5cccnc5)n4)cc3)cc2)CC1.CS(=O)(=O)O [Example 30, 4-(4-methylpiperazin-1-ylaminomethyl)-N-[4-(4-(pyridin-3-yl)pyrimidin-2-yl)aminophenyl]benzamide methanesulfonate] | 22.8 µg/mL | – | 151 to 153 °C
CN1CCCN(Cc2ccc(C(=O)Nc3ccc(F)c(Nc4nccc(-c5cccnc5)n4)c3)cc2)CC1.CS(=O)(=O)O [Example 34, 4-(4-methylhomopiperazin-1-ylmethyl)-N-[4-fluoro-3-(4-(pyridin-3-yl)pyrimidin-2-yl)aminophenyl]benzamide methanesulfonate] | 7.17 µg/mL | – | 158 to 160 °C
